Results reported in ChEMBL document CHEMBL3885861, “Open TG-GATES”.

Species: Rattus norvegicus
Assay: Open TG-GATES - Regimen: Single
Type: toxicity, organism-based, Sprague-Dawley
Parameters: regimen Single, gender Male, age 6 weeks
Details: in vivo, po, 300 mg/kg, route gavage, dose level High; for APTT / Bas / Eos / Fbg / Hb / Ht / Lym / MCH / MCHC / MCV / Mono / Neu / PT / Plat / RBC / Ret / WBC: tissue Blood; for KIDNEY_L / KIDNEY_R / KIDNEY_TOTAL: tissue Kidney; for LIVER: tissue Liver; for A/G / ALP / ALT / AST / BUN / CRE / Ca / Cl / DBIL / GLC / IP / K / LDH / Na / PL / RALB / TBIL / TC / TG / TP / gamma-GTP: tissue Plasma

Work on `C[C@]12CCC(=O)C=C1CC[C@@H]1[C@@H]2CC[C@@]2(C)[C@H]1CC[C@]2(C)O` [METHYLTESTOSTERONE] yielded a TERMINAL_BW (3 h) of 199.1 g, an APTT (3 h) of 18.1 s and a Bas (3 h) of 0%. For the same compound, the Eos (3 h) was 0.8%, the Fbg (3 h) was 279.8 mg/dL and the Hb (3 h) was 13.1 g/dL. The Ht (3 h) was 38.1%, the Lym (3 h) was 74% and the MCH (3 h) was 21.3 pg. The MCHC (3 h) was 34.4%, the MCV (3 h) was 62.1 fL and the Mono (3 h) was 3.2%. For the same compound, the Neu (3 h) was 21.2%, the PT (3 h) was 12.9 s and the Plat (3 h) was 116.5 x10_4/uL. For the same compound, the RBC (3 h) was 614.2 x10_4/ul, the Ret (3 h) was 8.5% and the WBC (3 h) was 82.4 x10_2/uL. For the same compound, the KIDNEY_L (3 h) was 0.9 g, the KIDNEY_R (3 h) was 0.9 g and the KIDNEY_TOTAL (3 h) was 1.8 g. The LIVER (3 h) was 8.5 g, the A/G (3 h) was 0.9 and the ALP (3 h) was 1496.8 IU/L. The ALT (3 h) was 40 IU/L, the AST (3 h) was 74.6 IU/L and the BUN (3 h) was 10.6 mg/dL. It also gave a CRE (3 h) of 0.2 mg/dL, a Ca (3 h) of 10.6 mg/dL and a Cl (3 h) of 105.4 meq/L. The DBIL (3 h) was 0.012 mg/dL, the GLC (3 h) was 188.2 mg/dL and the IP (3 h) was 9.6 mg/dL. For the same compound, the K (3 h) was 4.3 meq/L, the LDH (3 h) was 66 IU/L and the Na (3 h) was 140.8 meq/L. It also gave a PL (3 h) of 135.2 mg/dL, an RALB (3 h) of 2.5 g/dL and a TBIL (3 h) of 0.05 mg/dL. For the same compound, the TC (3 h) was 75 mg/dL, the TG (3 h) was 41.2 mg/dL and the TP (3 h) was 5.4 g/dL. It also gave a gamma-GTP (3 h) of 1.2 IU/L, a TERMINAL_BW (6 h) of 201.8 g and an APTT (6 h) of 18.2 s. The Bas (6 h) was 0%, the Eos (6 h) was 0.8% and the Fbg (6 h) was 274.8 mg/dL. It also gave a Hb (6 h) of 12.9 g/dL, a Ht (6 h) of 37.7% and a Lym (6 h) of 76.4%. The MCH (6 h) was 21.3 pg, the MCHC (6 h) was 34.3% and the MCV (6 h) was 62 fL. For the same compound, the Mono (6 h) was 3%, the Neu (6 h) was 19.6% and the PT (6 h) was 13.4 s. For the same compound, the Plat (6 h) was 114.3 x10_4/uL, the RBC (6 h) was 608.4 x10_4/ul and the Ret (6 h) was 7.9%. It also gave a WBC (6 h) of 66.5 x10_2/uL, a KIDNEY_L (6 h) of 0.9 g and a KIDNEY_R (6 h) of 0.9 g. For the same compound, the KIDNEY_TOTAL (6 h) was 1.7 g, the LIVER (6 h) was 8.1 g and the A/G (6 h) was 0.9. For the same compound, the ALP (6 h) was 1589.4 IU/L, the ALT (6 h) was 45 IU/L and the AST (6 h) was 77.2 IU/L. For the same compound, the BUN (6 h) was 9 mg/dL, the CRE (6 h) was 0.2 mg/dL and the Ca (6 h) was 10.6 mg/dL. It also gave a Cl (6 h) of 107.8 meq/L, a DBIL (6 h) of 0.016 mg/dL and a GLC (6 h) of 181.8 mg/dL. It also gave an IP (6 h) of 9.6 mg/dL, a K (6 h) of 4.2 meq/L and an LDH (6 h) of 67.8 IU/L. For the same compound, the Na (6 h) was 141.6 meq/L, the PL (6 h) was 120 mg/dL and the RALB (6 h) was 2.5 g/dL. It also gave a TBIL (6 h) of 0.054 mg/dL, a TC (6 h) of 57.8 mg/dL and a TG (6 h) of 40.8 mg/dL. The TP (6 h) was 5.4 g/dL, the gamma-GTP (6 h) was 1.2 IU/L and the TERMINAL_BW (9 h) was 203.1 g. For the same compound, the APTT (9 h) was 17.8 s, the Bas (9 h) was 0% and the Eos (9 h) was 1%. It also gave a Fbg (9 h) of 269.8 mg/dL, a Hb (9 h) of 12.7 g/dL and a Ht (9 h) of 37.2%. For the same compound, the Lym (9 h) was 74.4%, the MCH (9 h) was 21.5 pg and the MCHC (9 h) was 34.1%. The MCV (9 h) was 62.9 fL, the Mono (9 h) was 2.8% and the Neu (9 h) was 21.8%. The PT (9 h) was 13.7 s, the Plat (9 h) was 105 x10_4/uL and the RBC (9 h) was 592.4 x10_4/ul. The Ret (9 h) was 8.5%, the WBC (9 h) was 70.7 x10_2/uL and the KIDNEY_L (9 h) was 0.9 g. The KIDNEY_R (9 h) was 0.9 g, the KIDNEY_TOTAL (9 h) was 1.8 g and the LIVER (9 h) was 8.1 g. For the same compound, the A/G (9 h) was 0.9, the ALP (9 h) was 1500.8 IU/L and the ALT (9 h) was 36.6 IU/L. The AST (9 h) was 70.6 IU/L, the BUN (9 h) was 7.8 mg/dL and the CRE (9 h) was 0.2 mg/dL. For the same compound, the Ca (9 h) was 10.5 mg/dL, the Cl (9 h) was 107.6 meq/L and the DBIL (9 h) was 0.02 mg/dL. The GLC (9 h) was 182.4 mg/dL, the IP (9 h) was 10.7 mg/dL and the K (9 h) was 4.3 meq/L. The LDH (9 h) was 59 IU/L, the Na (9 h) was 142.4 meq/L and the PL (9 h) was 103.2 mg/dL. The RALB (9 h) was 2.5 g/dL, the TBIL (9 h) was 0.06 mg/dL and the TC (9 h) was 46.2 mg/dL. It also gave a TG (9 h) of 49 mg/dL, a TP (9 h) of 5.3 g/dL and a gamma-GTP (9 h) of 1 IU/L. The TERMINAL_BW (24 h) was 203 g, the APTT (24 h) was 20.8 s and the Bas (24 h) was 0%. It also gave an Eos (24 h) of 1%, a Fbg (24 h) of 267.4 mg/dL and a Hb (24 h) of 13.1 g/dL. It also gave a Ht (24 h) of 37.8%, a Lym (24 h) of 83% and an MCH (24 h) of 22 pg. The MCHC (24 h) was 34.5%, the MCV (24 h) was 63.7 fL and the Mono (24 h) was 2.6%. For the same compound, the Neu (24 h) was 13%, the PT (24 h) was 13.8 s and the Plat (24 h) was 116.9 x10_4/uL. The RBC (24 h) was 593.2 x10_4/ul, the Ret (24 h) was 7.7% and the WBC (24 h) was 89.5 x10_2/uL. The KIDNEY_L (24 h) was 0.9 g, the KIDNEY_R (24 h) was 0.9 g and the KIDNEY_TOTAL (24 h) was 1.8 g. For the same compound, the LIVER (24 h) was 10.2 g, the A/G (24 h) was 0.9 and the ALP (24 h) was 1864.8 IU/L. For the same compound, the ALT (24 h) was 48.8 IU/L, the AST (24 h) was 77.6 IU/L and the BUN (24 h) was 16.8 mg/dL. For the same compound, the CRE (24 h) was 0.2 mg/dL, the Ca (24 h) was 10.9 mg/dL and the Cl (24 h) was 107.8 meq/L. It also gave a DBIL (24 h) of 0.034 mg/dL, a GLC (24 h) of 185.2 mg/dL and an IP (24 h) of 7.6 mg/dL. It also gave a K (24 h) of 4.3 meq/L, an LDH (24 h) of 71 IU/L and a Na (24 h) of 142 meq/L. The PL (24 h) was 126.6 mg/dL, the RALB (24 h) was 2.6 g/dL and the TBIL (24 h) was 0.032 mg/dL. The TC (24 h) was 45.4 mg/dL, the TG (24 h) was 238 mg/dL and the TP (24 h) was 5.6 g/dL. For the same compound, the gamma-GTP (24 h) was 1.2 IU/L.
